Target: T1, BK potassium channel, cloned hSlo (α-hSlo and β-bSlo) in CHO cells (Homo sapiens, UniProt Q12791)
T1 construct: expressed in transfected cells; host or cells: CHO cells, permanently transfected
Experiment: Em-Assay: membrane potential with voltage sensitive dye DiBAC(4)3, fluorescence plate reader
Format: cell-based
Details: compound 50 μM; NS004 25 or 50 μM; hSlo transfected CHO cells; change in DiBAC(4)3 fluorescence intensity
From the text: The large conductance, voltage-dependent and Ca^2+-activated potassium channel BK is a potassium selective ion channel and belongs to the subfamily of KCa channels. Four BK alpha-subunits form a functional channel that can be regulated by intracellular Ca^2+ concentration, membrane voltage, and other mechanisms like phosphorylation states or beta subunits. To test the biological activity of the compounds, we applied two different techniques, a fluorescence based assay using a voltage sensitive dye (Em-Assay) as well as exploiting electrophysiological methods.
CHO cells permanently transfected with cloned hSlo (α-hSlo and β-bSlo), yielding typical BK potassium currents (Zhou et al., Pflügers Arch., 436: 725-734 (1998), were used for the evaluation of compound activity. Activation or inhibition of BK channels in these cells leads to a change of the electrochemical gradient causing a hyperpolarized or depolarised membrane potential, respectively.
To determine changes in the membrane potential of the cells we used the voltage sensitive dye DiBAC(4)3 (Molecular Probes) in a kinetic assay system using a fluorescent plate reader (Manning and Sontheimer, J. Neurosci, Meth., 91: 73-81 (1999). The anionic bis-oxonol DiBAC(4)3 is a voltage sensitive dye which partitions from the extracellular environment into the cell where it reversibly binds to intracellular proteins, a kinetic process depending on the membrane potential of the cell. At depolarised potentials (i.e. at a reduced K^+ efflux due to blocked K^+ channels) the dye accumulates in the cell leading to an increased fluorescence intensity, due to its increased fluorescence if bound to cellular proteins. At hyperpolarized potentials (i.e. at an increased K^+ efflux due to the opening of K^+ channels), the dye partitions out of the cell causing a decreased fluorescence intensity.
hSlo transfected CHO cells where maintained in DMEM supplemented with 10% FCS, 250 μg/ml Geneticin, 100 μg/ml Hygromycin, 1×HT-Supplement, and 1×Non-essential Amino Acids and cultured in a humidified CO2 incubator. After trypsination, cells where plated with a density of 5×10^4 cells per well on a clear 96-well plate and incubated for 24 h. Cells where washed once with PBS, once with PBS containing 20 mM HEPES (adjusted to pH 7.4 with NaOH) and 2 μM DIBAC(4)3 (DPBS-DiBAC solution). 180 μl of the dPBS-DiBAC solution was then added to the cells and the plate incubated for 30-60 min at 37° C. During this time the dye could partition into the cells and reach a certain steady-state distribution, depending on the resting membrane potential. Test and reference compounds were stored as DMSO stock solutions and diluted in dPBS-DiBAC solution to the desired concentration.
Fluorescence intensity (Ex.: 485 nm/Em.: 520 nm) of each well was detected in the plate reader (Fluostar, BMG) every 60 seconds. After recording the baseline fluorescence for 7 minutes, 20 μl test—and reference compounds were added and the fluorescence intensity was detected for additional 15 minutes. Background was subtracted, data values were normalized and expressed as a change in fluorescence intensity against time. The change in fluorescence intensity caused by the test compounds was evaluated, compared to the effect of the reference compound NS004, and the ratio was determined (see Table I).

T1 sequence (Q12791 1-1178 isoform Q12791-5): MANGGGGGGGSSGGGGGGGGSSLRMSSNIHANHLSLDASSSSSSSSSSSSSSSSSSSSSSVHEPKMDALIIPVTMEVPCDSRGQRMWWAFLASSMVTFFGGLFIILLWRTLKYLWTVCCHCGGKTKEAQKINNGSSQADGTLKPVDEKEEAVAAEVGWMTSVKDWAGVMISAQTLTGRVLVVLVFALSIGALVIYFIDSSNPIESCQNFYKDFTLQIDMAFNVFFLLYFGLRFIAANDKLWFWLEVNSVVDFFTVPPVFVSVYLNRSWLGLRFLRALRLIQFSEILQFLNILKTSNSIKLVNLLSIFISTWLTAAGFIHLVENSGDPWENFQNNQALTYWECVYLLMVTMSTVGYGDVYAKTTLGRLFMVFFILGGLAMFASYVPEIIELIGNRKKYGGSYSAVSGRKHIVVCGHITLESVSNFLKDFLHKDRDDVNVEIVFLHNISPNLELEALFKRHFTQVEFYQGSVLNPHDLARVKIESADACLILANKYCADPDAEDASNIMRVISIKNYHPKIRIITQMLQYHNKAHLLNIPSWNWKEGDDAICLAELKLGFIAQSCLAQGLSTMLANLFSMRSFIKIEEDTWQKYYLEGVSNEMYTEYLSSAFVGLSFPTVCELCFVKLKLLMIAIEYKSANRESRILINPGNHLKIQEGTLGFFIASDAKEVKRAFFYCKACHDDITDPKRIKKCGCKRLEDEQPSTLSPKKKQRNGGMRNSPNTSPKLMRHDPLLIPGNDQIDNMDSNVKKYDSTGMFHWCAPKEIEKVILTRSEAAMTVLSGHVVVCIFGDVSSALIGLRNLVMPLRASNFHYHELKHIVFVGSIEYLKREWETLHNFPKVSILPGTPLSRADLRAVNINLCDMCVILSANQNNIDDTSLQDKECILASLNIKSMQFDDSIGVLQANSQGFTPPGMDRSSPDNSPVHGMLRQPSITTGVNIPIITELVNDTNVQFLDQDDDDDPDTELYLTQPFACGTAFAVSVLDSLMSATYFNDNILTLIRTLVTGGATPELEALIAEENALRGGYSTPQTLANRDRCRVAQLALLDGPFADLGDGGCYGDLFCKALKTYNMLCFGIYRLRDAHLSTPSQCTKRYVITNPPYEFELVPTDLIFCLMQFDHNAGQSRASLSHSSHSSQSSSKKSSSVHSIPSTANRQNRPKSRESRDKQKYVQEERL
T1 sequence (Q28067 2-191 partner limits assumed): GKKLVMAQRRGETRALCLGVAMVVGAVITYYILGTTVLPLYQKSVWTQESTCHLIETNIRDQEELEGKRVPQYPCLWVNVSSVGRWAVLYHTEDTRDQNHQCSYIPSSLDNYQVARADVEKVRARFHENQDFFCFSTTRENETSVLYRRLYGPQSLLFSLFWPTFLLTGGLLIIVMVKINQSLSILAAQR

**Q.** For `FC(F)(F)c1ccc(CNc2cc(NCc3ccc(C(F)(F)F)cc3)cc(C(F)(F)F)c2)cc1` [Compound 70, 5-trifloromethyl-N,N′-bis-(4-trifluoromethylbenzyl)-benzene-1,3-diamine], which “Em effect: ratio of the compound effect compared to the maximal effect of NS004” value (“Em effect: ratio of the compound effect” for short) is on record?
**A.** + (0-1 = +)

**Q.** Which “Em effect: ratio of the compound effect” value does the source give for `Fc1ccc(CNc2cc(NCc3ccc(F)cc3F)cc(C(F)(F)F)c2)c(F)c1` [Compound 69] here?
**A.** + (0-1 = +)

**Q.** How did the “Em effect: ratio of the compound effect” value turn out when `COc1cccc(CNc2cc(Cl)c(NCc3cccc(OC)c3)c(Cl)c2)c1` [Compound 90, 2,6-dichloro-N,N′-bis-(3-methoxy-benzyl)-benzene-1,4-diamine] was run?
**A.** + (0-1 = +)

**Q.** Which “Em effect: ratio of the compound effect” value does the source give for `O=[N+]([O-])c1ccc(CNc2cc(NCc3ccc([N+](=O)[O-])cc3)cc(C(F)(F)F)c2)cc1` [Compound 1] here?
**A.** + (0-1 = +)

**Q.** Which “Em effect: ratio of the compound effect” value does the source give for `N#Cc1ccccc1-c1ccc(CNc2cc(NCc3ccc(-c4ccccc4C#N)cc3)cc(C(F)(F)F)c2)cc1` [Compound 73] here?
**A.** + (0-1 = +)

**Q.** Which “Em effect: ratio of the compound effect” value does the source give for `Clc1cccc(CNc2cccc(NCc3ccccc3Cl)c2)c1` [Compound 47] here?
**A.** ++ (>1-1.5 = ++)

**Q.** With `COc1cccc(CNc2cccc(NCc3ccc(F)cc3Cl)c2)c1` [Compound 67] as the compound, how does the “Em effect: ratio of the compound effect” value read?
**A.** + (0-1 = +)

**Q.** `Fc1cc(F)cc(CNc2ccc(NCc3cc(F)cc(F)c3)cc2)c1` [Compound 98, N,N′-bis-(3,5-difluorobenzyl)-benzene-1,4-diamine] was tested. Which “Em effect: ratio of the compound effect” value did it give?
**A.** + (0-1 = +)

**Q.** Which “Em effect: ratio of the compound effect” value does the source give for `Fc1cc(F)cc(CNc2cccc(NCc3cc(F)cc(F)c3)c2)c1` [Compound 27, N,N′-bis-(3,5-difluorobenzyl)-benzene-1,3-diamine] here?
**A.** ++ (>1-1.5 = ++)

**Q.** Which “Em effect: ratio of the compound effect” value does the source give for `N#Cc1ccccc1-c1ccc(CNc2cccc(NCc3ccc(-c4ccccc4C#N)cc3)c2)cc1` [Compound 30] here?
**A.** + (0-1 = +)

**Q.** For `CC(C)(C)c1ccc(CNc2cccc(NCc3cccc(Cl)c3)c2)cc1` [Compound 42, N-(4tert-butylbenzyl)-N′-(3-chloro-benzyl)-benzene-1,3-diamine], which “Em effect: ratio of the compound effect” value is on record?
**A.** + (0-1 = +)

**Q.** Which “Em effect: ratio of the compound effect” value does the source give for `Clc1cccc(CNc2ccc(NCc3ccccc3)c(Cl)c2)c1` [Compound 20, N′-Benzyl-2-chloro-N^4-(3-chlorobenzyl)-benzene-1,4-diamine] here?
**A.** + (0-1 = +)

**Q.** For `CS(=O)(=O)c1ccc(CNc2cccc(NCc3cc(F)cc(F)c3)c2)cc1` [Compound 51, N-(3,5-difluorobenzyl)-N′-(4-methanlesulfonylbenzyl)-benzene-1,3-diamine], which “Em effect: ratio of the compound effect” value is on record?
**A.** + (0-1 = +)

**Q.** How did the “Em effect: ratio of the compound effect” value turn out when `COc1cccc(CNc2cc(NCc3cccc(OC)c3)cc(C(F)(F)F)c2)c1` [Compound 76, N,N′-bis-(3-methoxybenzyl)-5-trifluoromethylbenzene-1,3-diamine] was run?
**A.** + (0-1 = +)

**Q.** With `Fc1ccc(CNc2ccc(NCc3ccc(F)cc3F)c(Cl)c2)c(F)c1` [Compound 106] as the compound, how does the “Em effect: ratio of the compound effect” value read?
**A.** + (0-1 = +)

**Q.** With `Fc1ccc(CNc2cccc(NCc3ccc(F)cc3Cl)c2)c(Cl)c1` [Compound 37, N,N′-bis-(2-chloro-4-fluorobenzyl)-benzene-1,3-diamine] as the compound, how does the “Em effect: ratio of the compound effect” value read?
**A.** ++ (>1-1.5 = ++)

**Q.** How did the “Em effect: ratio of the compound effect” value turn out when `COc1cccc(CNc2cc(NCc3ccc(C(F)(F)F)cc3)cc(C(F)(F)F)c2)c1` [Compound 83, N-(3-methoxybenzyl)-5-tri-fluoromethyl-N′-(4-tri-fluoromethylbenzyl)-benzene-1,3-diamine] was run?
**A.** + (0-1 = +)

**Q.** For `Fc1cccc(F)c1CNc1cccc(NCc2cccc(Cl)c2)c1` [Compound 57, N-(3-chlorobenzyl)-N′-(2,6-difluorobenzyl)-benzene-1,3-diamine], which “Em effect: ratio of the compound effect” value is on record?
**A.** + (0-1 = +)

**Q.** With `FC(F)(F)c1cc(NCc2cccc(Cl)c2)cc(NCc2cccc(Cl)c2)c1` [Compound 3] as the compound, how does the “Em effect: ratio of the compound effect” value read?
**A.** + (0-1 = +)

**Q.** For `COc1cccc(CNc2cccc(NCc3cccc(OC)c3)c2)c1` [Compound 33], which “Em effect: ratio of the compound effect” value is on record?
**A.** + (0-1 = +)

**Q.** `Clc1ccccc1CNc1ccc(NCc2ccccc2Cl)cc1` [Compound 95, N,N′-bis-(2-chlorobenzyl)-benzene-1,4-diamine] was tested. Which “Em effect: ratio of the compound effect” value did it give?
**A.** + (0-1 = +)

**Q.** `Fc1ccc(CNc2ccc(NCc3ccc(F)cc3F)cc2)c(F)c1` [Compound 99] was tested. Which “Em effect: ratio of the compound effect” value did it give?
**A.** + (0-1 = +)

**Q.** Which “Em effect: ratio of the compound effect” value does the source give for `Fc1ccc(CNc2cccc(NCc3ccc(F)cc3F)c2)c(F)c1` [Compound 28, N,N′-bis-(2,4-difluorobenzyl)-benzene-1,3-diamine] here?
**A.** ++ (>1-1.5 = ++)

**Q.** How did the “Em effect: ratio of the compound effect” value turn out when `COc1cccc(CNc2cc(NCc3csc4ccc(Cl)cc34)cc(C(F)(F)F)c2)c1` [Compound 81] was run?
**A.** + (0-1 = +)

**Q.** For `Clc1cccc(CNc2ccc(NCc3ccc(Br)cc3)c(Cl)c2)c1` [Compound 21, N^1-(4-Bromobenzyl)-2-chloro-N^4-(3-chlorobenzyl)-benzene-1,4-diamine], which “Em effect: ratio of the compound effect” value is on record?
**A.** + (0-1 = +)

**Q.** With `Fc1cccc(F)c1CNc1cccc(NCc2c(F)cccc2F)c1` [Compound 34, N,N′-bis-(2,6-difluorobenzyl)-benzene-1,3-diamine] as the compound, how does the “Em effect: ratio of the compound effect” value read?
**A.** + (0-1 = +)

**Q.** Which “Em effect: ratio of the compound effect” value does the source give for `Cc1cc(NCc2ccc(S(C)(=O)=O)cc2)ccc1NCc1ccc(S(C)(=O)=O)cc1` [Compound 86] here?
**A.** + (0-1 = +)

**Q.** How did the “Em effect: ratio of the compound effect” value turn out when `O=[N+]([O-])c1ccc(CNc2ccc(NCc3ccc(Br)cc3)cc2Cl)cc1` [Compound 23] was run?
**A.** + (0-1 = +)

**Q.** `Cc1cc(NCc2cccc(F)c2)ccc1NCc1cccc(F)c1` [Compound 103, N^1,N^4-bis-(3-fluorobenzyl)-2-methylbenzene-1,4-diamnine] was tested. Which “Em effect: ratio of the compound effect” value did it give?
**A.** + (0-1 = +)

**Q.** For `O=[N+]([O-])c1ccc(CNc2cccc(NCc3ccc(F)cc3F)c2)o1` [Compound 54, N-(2,4-difluorobenzyl)-N′-(5-nitrofuran-2-ylmethyl)-benzene1,3-diamine], which “Em effect: ratio of the compound effect” value is on record?
**A.** + (0-1 = +)

**Q.** How did the “Em effect: ratio of the compound effect” value turn out when `Cc1cc(NCc2cccc(Cl)c2)ccc1NCc1cccc(Cl)c1` [Compound 17] was run?
**A.** + (0-1 = +)

**Q.** Which “Em effect: ratio of the compound effect” value does the source give for `Cc1cc(NCc2ccc3ccccc3c2)ccc1NCc1ccc2ccccc2c1` [Compound 16] here?
**A.** + (0-1 = +)

**Q.** `CC(C)(C)c1ccc(CNc2cccc(NCc3ccc(S(C)(=O)=O)cc3)c2)cc1` [Compound 43, N-(4-tert-butylbenzyl)-N′-(4-methanesulfonylbenzyl)-benzene-1,3-diamine] was tested. Which “Em effect: ratio of the compound effect” value did it give?
**A.** + (0-1 = +)

**Q.** `O=[N+]([O-])c1ccc(CNc2cc(NCc3ccccc3C(F)(F)F)cc(C(F)(F)F)c2)o1` [Compound 85] was tested. Which “Em effect: ratio of the compound effect” value did it give?
**A.** + (0-1 = +)

**Q.** With `Fc1ccc(CNc2cccc(NCc3ccc(F)cc3)c2)cc1` [Compound 26, N,N′-bis-(4-fluorobenzyl)-benzene-1,3-diamine] as the compound, how does the “Em effect: ratio of the compound effect” value read?
**A.** + (0-1 = +)

**Q.** `Fc1cccc(CNc2cccc(NCc3csc4ccc(Cl)cc34)c2)c1` [Compound 60] was tested. Which “Em effect: ratio of the compound effect” value did it give?
**A.** + (0-1 = +)

**Q.** For `Fc1cc(F)cc(CNc2cc(NCc3csc4ccc(Cl)cc34)cc(C(F)(F)F)c2)c1` [Compound 80], which “Em effect: ratio of the compound effect” value is on record?
**A.** + (0-1 = +)
